Source: patent publication US6579686B2, “Constitutive androstane receptor” (SmithKline Beecham Corporation, priority 2000, dated 2003)
“Also recorded” adds a separate entry of the source. Like-named read-outs stand apart in the source and are kept apart here.

Key:
human CAR (hCAR) [1] = target: T1, human CAR (hCAR) (Homo sapiens, UniProt Q14994); settings: for EC50: read-out: EC50 values for activation/deactivation of CAR, HCAR, transfected CV-1 cells, 0.0001 μM to 10 μM in half-log steps, EC50 given only for ≧ 2-fold activation or deactivation relative to basal activity
T1 sequence (Q14994 1-348 isoform Q14994-2): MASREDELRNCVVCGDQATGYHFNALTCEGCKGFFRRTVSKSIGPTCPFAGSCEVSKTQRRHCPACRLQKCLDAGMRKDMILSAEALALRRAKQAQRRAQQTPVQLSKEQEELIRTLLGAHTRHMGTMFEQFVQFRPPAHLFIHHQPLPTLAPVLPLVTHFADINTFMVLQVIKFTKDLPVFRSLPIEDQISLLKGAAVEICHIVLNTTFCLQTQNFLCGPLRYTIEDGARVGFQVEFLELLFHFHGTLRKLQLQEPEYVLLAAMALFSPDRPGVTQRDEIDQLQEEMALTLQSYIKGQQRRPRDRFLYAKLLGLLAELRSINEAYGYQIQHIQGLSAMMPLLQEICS

mouse CAR (mCAR) [2] = target: T2, mouse CAR (mCAR) (Mus musculus, UniProt O35627)
T2 sequence (O35627 1-358): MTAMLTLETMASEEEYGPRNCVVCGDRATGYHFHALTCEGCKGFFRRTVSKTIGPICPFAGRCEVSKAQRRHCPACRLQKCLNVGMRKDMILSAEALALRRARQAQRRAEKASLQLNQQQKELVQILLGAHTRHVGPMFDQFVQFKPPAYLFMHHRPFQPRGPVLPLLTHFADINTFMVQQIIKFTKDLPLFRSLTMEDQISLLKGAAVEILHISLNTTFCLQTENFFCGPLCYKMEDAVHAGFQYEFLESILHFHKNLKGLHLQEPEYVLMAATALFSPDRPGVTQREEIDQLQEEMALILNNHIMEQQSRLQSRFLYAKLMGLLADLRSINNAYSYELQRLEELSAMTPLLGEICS

hCAR LBD = target: T3, hCAR LBD (Homo sapiens, UniProt Q14994); assay: Scintillation proximity binding assay with [3H]clotrimazole; settings: 10 nM [3H]clotrimazole, 10 μM competitor
T3 construct: or 103-348 of hCAR; made in house; host or cells: E. coli BL21(DE3), pRSETa
T3 sequence (Q14994 103-348 isoform Q14994-2): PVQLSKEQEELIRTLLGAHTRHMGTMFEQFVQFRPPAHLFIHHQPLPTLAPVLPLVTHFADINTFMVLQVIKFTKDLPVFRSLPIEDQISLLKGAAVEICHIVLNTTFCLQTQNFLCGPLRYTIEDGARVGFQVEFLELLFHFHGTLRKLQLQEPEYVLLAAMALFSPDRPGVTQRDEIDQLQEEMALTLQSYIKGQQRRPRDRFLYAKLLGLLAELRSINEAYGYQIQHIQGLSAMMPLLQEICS
Method: Scintillation proximity binding assay. Streptavidin polyvinyltoluene SPA beads (Amersham Pharmacia Biotech) were resuspended in assay buffer (50 mM Tris, 50 mM KCl, 1 mM CHAPS, 0.1 mg/ml BSA, 10 mM DTT). Biotinylated hCAR LBD was added to a final concentration of 50 nM. The amount of biotinylated receptor can be varied to account for variations in the extent of biotinylation and/or the observed S/N ratio for different batches of receptor. […] The receptor/bead mixture was allowed to incubate at room temperature for 15 min with gentle agitation. Uncoupled receptor was removed by centrifuging the receptor/bead mixture at 2500 rpm for 10 min and pouring off the supernatant. Receptor-coupled beads were resuspended in assay buffer and a second wash performed. All experiments were run in Costar 96-well SPA plates using an assay volume of 100 μl.

mouse CAR (mCAR) [3] = target: T2, mouse CAR (mCAR); assay: in vitro
hCAR/SRC-1 interaction = target: T4, hCAR/SRC-1 interaction (Homo sapiens, UniProt Q14994); assay: FRET ligand sensing assay, hCAR LBD with SRC-1 LXXLL peptide; assay type: biochemical; settings: SRC-1 peptide amino acids 676 to 700
T4 construct: or 103-348 of hCAR; made in house; host or cells: E. coli BL21(DE3), pRSETa
T4 sequence (Q14994 103-348 isoform Q14994-2): T3 sequence (Q14994 103-348 isoform Q14994-2)
Method: The mCAR and hCAR LBD were each expressed in E. coli strain BL21(DE3) as a polyhistidine-tagged fusion protein. […] Cells were lysed by passing 3 times through an APV Rannie MINI-lab homogenizer and cell debris was removed by centrifugation (30 minutes, 20,000 g, 4° C.). After adjusting the imidazole concentration to 50 mM, the lysate was loaded onto a column packed with Sepharose [Ni^++ charged] Chelation resin (Pharmacia) and pre-equilibrated with TBS pH 8.0/50 mM imidazole. […] The recombinant protein was eluted with a gradient from 50 to 500 mM imidazole. Column peak fractions were pooled immediately and diluted 5-7 fold with 25 mM Tris pH 8.0, containing 5% 1,2-propanediol, 0.5 mM EDTA and 5 mM DTT. The diluted protein sample was then loaded onto a column packed with Poros HQ resin (PerSeptive Biosystems) and eluted with a gradient from 0-500 mM NaCl. Peak fractions were pooled and concentrated using Centri-prep 10K (Amicon) and subjected to size exclusion, using a column packed with Superdex-75 resin (Pharmacia) pre-equilibrated with TBS, pH 8.0, containing 5% 1,2-propanediol, 0.5 mM EDTA and 5 mM DTT.
The purified CAR LBDs were desalted/buffer exchanged using PD-10 gel filtration columns into PBS [100 mM NaPhosphate, pH 7.2, 150 mM NaCl]. […]
Fluorescence resonance energy transfer (FRET) ligand sensing assay. […]

human CAR (hCAR) [4] = target: T1, human CAR (hCAR); assay: cell-based
human CAR (hCAR) [5] = target: T1, human CAR (hCAR); assay: in vitro
[6] = read-out: EC50 values for activation/deactivation of CAR, mCAR, transfected CV-1 cells, 0.0001 μM to 10 μM in half-log steps, EC50 given only for ≧ 2-fold activation or deactivation relative to basal activity
[7] = CV-1 cells, PB tested at 0.5 mM (high concentrations)

| Compound | effect on hCAR reporter activity (in words) (human CAR (hCAR) [1]; CV-1 cells, screened at 10 μM) | EC50 (human CAR (hCAR) [1]) | effect on mCAR reporter activity (in words) (mouse CAR (mCAR) [2]; CV-1 cells, screened at 10 μM) | EC50 (mouse CAR (mCAR) [2]; [6]) | competition with [3H]clotrimazole for binding to hCAR (in words) (hCAR LBD) | EC50 at 24 h (mouse CAR (mCAR) [3]) | also measured |
| --- | --- | --- | --- | --- | --- | --- | --- |
| Clc1cnc(Oc2ccc(Oc3ncc(Cl)cc3Cl)cc2)c(Cl)c1 [TCPOBOP, 1,4-bis[2-(3,5-dichloropyridyloxy)]benzene] | virtually no activity; also recorded: little or no activity | > 10 µM | efficacious activator of mCAR | 0.1 µM | did not compete |  | EC50 (mouse CAR (mCAR) [2]; read-out: EC50 for activation of mCAR, CV-1 cells): ~0.1 µM |
| Clc1ccccc1C(c1ccccc1)(c1ccccc1)n1ccnc1 [clotrimazole] | efficacious deactivator of hCAR |  |  |  |  |  |  |
| CCOP(=O)(OCC)C(=Cc1cc(C(C)(C)C)c(O)c(C(C)(C)C)c1)P(=O)(OCC)OCC [SR12813] | little or no effect; also recorded: little or no activity | > 10 µM | little or no effect | > 10 µM | did not compete |  |  |
| CC(=O)[C@H]1CC[C@H]2[C@@H]3CC[C@@H]4CC(=O)CC[C@]4(C)[C@H]3CC[C@]12C [5β-pregnane-3,20-dione] |  |  | only weak effects |  | competed efficiently | > 10 µM | activation of hCAR (human CAR (hCAR) [1]; CV-1 cells, relative to basal activity): ~2 fold; effect on hCAR LBD/SRC-1 interaction (in words) (hCAR/SRC-1 interaction): marked increase in the binding of SRC-1 to hCAR; EC50 (human CAR (hCAR) [4]): 0.67 µM |
| C[C@@H]1C[C@H]2[C@@H]3CCC4=CC(=O)C=C[C@]4(C)[C@@]3(F)[C@@H](O)C[C@]2(C)[C@@]1(O)C(=O)CO [dexamethasone] |  |  |  |  |  | > 10 µM | EC50 at 24 h (human CAR (hCAR) [5]): > 10 µM |
| CC#C[C@]1(O)CC[C@H]2[C@@H]3CCC4=CC(=O)CCC4=C3[C@@H](c3ccc(N(C)C)cc3)C[C@@]21C [RU486] |  |  |  |  |  | > 10 µM | EC50 at 24 h (human CAR (hCAR) [5]): > 10 µM |
| CCC1(c2ccccc2)C(=O)NC(=O)NC1=O [PB, phenobarbital] |  |  |  |  |  |  | effect on hCAR reporter activity (in words) (human CAR (hCAR) [1]; [7]): weak but reproducible deactivation; also recorded: deactivated hCAR; effect on mCAR reporter activity (in words) (mouse CAR (mCAR) [2]; [7]): weak but reproducible deactivation |
| C[C@@]12CCC[C@H]1[C@@H]1CC[C@H]3C[C@@H](O)CC[C@]3(C)[C@H]1CC2 [androstanol] | deactivated hCAR, though the effect was not nearly as pronounced as on mCAR | > 10 µM | efficacious deactivator of mCAR | 0.84 µM | competed efficiently |  | effect on hCAR LBD/SRC-1 interaction (in words) (hCAR/SRC-1 interaction): disrupted this interaction |
